The values that follow are results of earlier work, collected in patent US20210187081A1, “FORMULATIONS AND DOSES OF PEGYLATED URICASE” (Selecta Biosciences, Inc., priority 2019, published 2021).

Where two headings read alike, the source gives them in different places. Some results are limits rather than exact numbers.

For data set [1], the system named is Patients with Hyperuricemia and Gout. The following applies: for Subjects who required treatment for at least one gout flare: first 8 weeks, with gout flare prophylaxis.
Data set [2] relates to patients with gout with an inadequate response to allopurinol. As to conditions: for Patients with gout flares requiring treatment in a month: colchicine prophylaxis.

Regarding `Cc1nc(-c2ccc(OCC(C)C)c(C#N)c2)sc1C(=O)O` [Febuxostat, febuxostat], the “Flares per patient month (flare frequency)” value is 0.22 flares per patient month in data set [1] (80 mg/day); “at least 0.22 flares per patient month” in data set [1] (80 mg/day, listed as febuxostat); 0.36 flares per patient month in data set [1] (120 mg/day); no less than 0.36 flares per patient month in data set [1] (120 mg/day, listed as febuxostat). Also, the “Subjects who required treatment for at least one gout flare” value in data set [1] (80 mg/day) is given as 55 out of 255; in data set [1] (120 mg/day), 90 out of 250.

As for `O=C(O)CSc1nnc(Br)n1-c1ccc(C2CC2)c2ccccc12` [Lesinurad, lesinurad], the figures for the “Patients with gout flares requiring treatment in a month” value in data set [2] (200 mg daily), in data set [2] (400 mg daily) and in data set [2] (600 mg daily) were 10 out of 46, 13 out of 42 and 15 out of 48, respectively. In addition, the “Flares per patient month (flare frequency)” value in data set [2] (200 mg/day) is on record as 0.22 flares per patient month; in data set [2] (400 mg/day) it was 0.31 flares per patient month; in data set [2] (600 mg/day), 0.31 flares per patient month. Moreover, the “Time of efficacy (area under curve of mean sUA levels over time)” value in data set [2] (200 mg/day) is listed as 158.5; in data set [2] (400 mg/day) it was 165.8; in data set [2] (600 mg/day) it was 167.5.
